Measurements from patent publication US20250127170A1, “TRIAZINE HERBICIDAL COMPOUNDS” (SYNGENTA CROP PROTECTION AG, priority 2021, published 2025).

Experiments:
Assay type in all cases: in vivo
Conditions in all cases: 312 h, evaluated after 13 days, 100=total damage to plant, 0=no damage to plant
[1] = tested on: Ipomoea hederacea (IPOHE); test: Pre-emergence biological efficacy
Method: (§1) Seeds of weeds and/or crops were sown in standard soil in pots (Amaranthus palmeri (AMAPA), Lolium perenne (LOLPE), Euphorbia heterophylla (EPHHL), Ipomoea hederacea (IPOHE), Setaria faberi (SETFA), Echinochloa crus-galli (ECHCG)). After cultivation for one day under controlled conditions in a glasshouse (at 24/19° C., day/night; 16 hours light), the plants were sprayed with an aqueous spray solution derived from the formulation of the technical active ingredient in a small amount of acetone and a special solvent and emulsifier mixture referred to as IF50 (11.12% Emulsogen EL360™+44.44% N-methylpyrrolidone+44.44% Dowanol DPM glycol ether), to create a 50 g/l solution which was then diluted using 0.2% Genapol XO80 as diluent to give the desired final dose of test compound.
(§2) The test plants were then grown under controlled conditions in the glasshouse (at 24/18° C., day/night; 15 hours light; 50% humidity) and watered twice daily. After 13 days the test was evaluated (100=total damage to plant; 0=no damage to plant).

[2] = tested on: Euphorbia heterophylla (EPHHL); test: Pre-emergence biological efficacy
Method: as §1, §2

Lolium perenne (LOLPE) [3] = test: Pre-emergence biological efficacy
Method: as §1, §2

[4] = tested on: Echinochloa crus-galli (ECHCG); test: Pre-emergence biological efficacy
Method: as §1, §2

[5] = tested on: Amaranthus palmeri (AMAPA); test: Pre-emergence biological efficacy
Method: as §1, §2

Setaria faberi (SETFA) [6] = test: Pre-emergence biological efficacy
Method: as §1, §2

[7] = tested on: Ipomoea hederacea (IPOHE); test: Post-emergence biological efficacy
Method: as §1, with “Chenopodium album (CHEAL),” for “Lolium perenne (LOLPE),”, “(IPOHE), Eleusine indica (ELEIN), Lolium perenne (LOLPE), Digitaria sanguinalis (DIGSA),” for “(IPOHE),”, “14 days” for “one day”, “compound. The test plants were then grown under controlled conditions in the glasshouse (at 24/18° C., day/night; 15 hours light; 50% humidity) and watered twice daily. After 13 days the test was evaluated (100=total damage to plant; 0=no damage to plant).” for “compound.”

[8] = tested on: Euphorbia heterophylla (EPHHL); test: Post-emergence biological efficacy
Method: as §1, with “Chenopodium album (CHEAL),” for “Lolium perenne (LOLPE),”, “(IPOHE), Eleusine indica (ELEIN), Lolium perenne (LOLPE), Digitaria sanguinalis (DIGSA),” for “(IPOHE),”, “14 days” for “one day”, “compound. The test plants were then grown under controlled conditions in the glasshouse (at 24/18° C., day/night; 15 hours light; 50% humidity) and watered twice daily. After 13 days the test was evaluated (100=total damage to plant; 0=no damage to plant).” for “compound.”

[9] = tested on: Chenopodium album (CHEAL); test: Post-emergence biological efficacy
Method: as §1, with “Chenopodium album (CHEAL),” for “Lolium perenne (LOLPE),”, “(IPOHE), Eleusine indica (ELEIN), Lolium perenne (LOLPE), Digitaria sanguinalis (DIGSA),” for “(IPOHE),”, “14 days” for “one day”, “compound. The test plants were then grown under controlled conditions in the glasshouse (at 24/18° C., day/night; 15 hours light; 50% humidity) and watered twice daily. After 13 days the test was evaluated (100=total damage to plant; 0=no damage to plant).” for “compound.”

[10] = tested on: Digitaria sanguinalis (DIGSA); test: Post-emergence biological efficacy
Method: as §1, with “Chenopodium album (CHEAL),” for “Lolium perenne (LOLPE),”, “(IPOHE), Eleusine indica (ELEIN), Lolium perenne (LOLPE), Digitaria sanguinalis (DIGSA),” for “(IPOHE),”, “14 days” for “one day”, “compound. The test plants were then grown under controlled conditions in the glasshouse (at 24/18° C., day/night; 15 hours light; 50% humidity) and watered twice daily. After 13 days the test was evaluated (100=total damage to plant; 0=no damage to plant).” for “compound.”

Lolium perenne (LOLPE) [11] = test: Post-emergence biological efficacy
Method: as §1, with “Chenopodium album (CHEAL),” for “Lolium perenne (LOLPE),”, “(IPOHE), Eleusine indica (ELEIN), Lolium perenne (LOLPE), Digitaria sanguinalis (DIGSA),” for “(IPOHE),”, “14 days” for “one day”, “compound. The test plants were then grown under controlled conditions in the glasshouse (at 24/18° C., day/night; 15 hours light; 50% humidity) and watered twice daily. After 13 days the test was evaluated (100=total damage to plant; 0=no damage to plant).” for “compound.”

Eleusine indica (ELEIN) = test: Post-emergence biological efficacy
Method: as §1, with “Chenopodium album (CHEAL),” for “Lolium perenne (LOLPE),”, “(IPOHE), Eleusine indica (ELEIN), Lolium perenne (LOLPE), Digitaria sanguinalis (DIGSA),” for “(IPOHE),”, “14 days” for “one day”, “compound. The test plants were then grown under controlled conditions in the glasshouse (at 24/18° C., day/night; 15 hours light; 50% humidity) and watered twice daily. After 13 days the test was evaluated (100=total damage to plant; 0=no damage to plant).” for “compound.”

[12] = tested on: Echinochloa crus-galli (ECHCG); test: Post-emergence biological efficacy
Method: as §1, with “Chenopodium album (CHEAL),” for “Lolium perenne (LOLPE),”, “(IPOHE), Eleusine indica (ELEIN), Lolium perenne (LOLPE), Digitaria sanguinalis (DIGSA),” for “(IPOHE),”, “14 days” for “one day”, “compound. The test plants were then grown under controlled conditions in the glasshouse (at 24/18° C., day/night; 15 hours light; 50% humidity) and watered twice daily. After 13 days the test was evaluated (100=total damage to plant; 0=no damage to plant).” for “compound.”

[13] = tested on: Amaranthus palmeri (AMAPA); test: Post-emergence biological efficacy
Method: as §1, with “Chenopodium album (CHEAL),” for “Lolium perenne (LOLPE),”, “(IPOHE), Eleusine indica (ELEIN), Lolium perenne (LOLPE), Digitaria sanguinalis (DIGSA),” for “(IPOHE),”, “14 days” for “one day”, “compound. The test plants were then grown under controlled conditions in the glasshouse (at 24/18° C., day/night; 15 hours light; 50% humidity) and watered twice daily. After 13 days the test was evaluated (100=total damage to plant; 0=no damage to plant).” for “compound.”

Setaria faberi (SETFA) [14] = test: Post-emergence biological efficacy
Method: as §1, with “Chenopodium album (CHEAL),” for “Lolium perenne (LOLPE),”, “(IPOHE), Eleusine indica (ELEIN), Lolium perenne (LOLPE), Digitaria sanguinalis (DIGSA),” for “(IPOHE),”, “14 days” for “one day”, “compound. The test plants were then grown under controlled conditions in the glasshouse (at 24/18° C., day/night; 15 hours light; 50% humidity) and watered twice daily. After 13 days the test was evaluated (100=total damage to plant; 0=no damage to plant).” for “compound.”

Row | SMILES | pest or weed control at 250 g/ha [1] | pest or weed control at 250 g/ha [2] | pest or weed control at 250 g/ha (Lolium perenne (LOLPE) [3]) | pest or weed control at 250 g/ha [4] | pest or weed control at 250 g/ha [5] | pest or weed control at 250 g/ha (Setaria faberi (SETFA) [6]) | pest or weed control at 250 g/ha [7] | pest or weed control at 250 g/ha [8] | pest or weed control at 250 g/ha [9] | pest or weed control at 250 g/ha [10] | pest or weed control at 250 g/ha (Lolium perenne (LOLPE) [11]) | pest or weed control at 250 g/ha (Eleusine indica (ELEIN)) | pest or weed control at 250 g/ha [12] | pest or weed control at 250 g/ha [13] | pest or weed control at 250 g/ha (Setaria faberi (SETFA) [14])
1 | CCOC(=O)C[C@H](C)OC(=O)c1cc(-n2c(=O)n(C)c(=S)n(C)c2=O)ccc1Cl [Compound 1-360 (S-enantiomer), [(1S)-3-ethoxy-1-methyl-3-oxo-propyl] 2-chloro-5-(3,5-dimethyl-2,6-dioxo-4-thioxo-1,3,5-triazinan-1-yl)benzoate] | 20% | 30% | 70% | 80% | 80% | 90% | 70% | 90% | 100% | 100% | 100% | 90% | 100% | 100% | 100%
2 | CCOC(=O)C[C@H](C)OC(=O)c1cc(-n2c(=O)n(C)c(=S)n(C)c2=O)c(F)cc1Cl [Compound 1-369 (S-enantiomer), [(1S)-3-ethoxy-1-methyl-3-oxo-propyl]-2-chloro-5-(3,5-dimethyl-2,6-dioxo-4-thioxo-1,3,5-triazinan-1-yl)-4-fluoro-benzoate] | 50% | 90% | 90% | 100% | 100% | 100% | 90% | 100% | 100% | 100% | 100% | 100% | 100% | 100% | 100%
3 | CCOC(=O)CC(C)N(C)C(=O)c1cc(-n2c(=O)n(C)c(=S)n(C)c2=O)c(F)cc1Cl (stereo not drawn) [Compound 1-405, Ethyl 3-[[2-chloro-5-(3,5-dimethyl-2,6-dioxo-4-thioxo-1,3,5-triazinan-1-yl)-4-fluoro-benzoyl]-methyl-amino]butanoate] | 0% | 0% | 0% | 0% | 0% | 0% | 40% | 20% | 60% | 40% | 10% | 50% | 10% | 60% | 10%
4 | CCOC(=O)CC(CC)OC(=O)c1cc(-n2c(=O)n(C)c(=S)n(C)c2=O)c(F)cc1Cl (stereo not drawn) [Compound 1-420, (3-Ethoxy-1-ethyl-3-oxo-propyl) 2-chloro-5-(3,5-dimethyl-2,6-dioxo-4-thioxo-1,3,5-triazinan-1-yl)-4-fluoro-benzoate] | 30% | 100% | 90% | 100% | 100% | 100% | 50% | 70% | 100% | 30% | 100% | 50% | 40% | 100% | 90%
